From patent US9035048B2, “Tetrahydrotriazine compounds for treating diseases associated with AMPK activity” (POXEL, priority 2008, dated 2015)
Entries after “also recorded” stand apart in the source; their conditions may differ.

Columns and labels:
AMPK [1] = experiment: AMPK activation in hepatocyte cells; format: cell-based; settings: different doses, FIG. 1
Description: The AMPK activation in hepatocytes is given in the gel electrophoresis pictures. The supplemental diagram visualizes the degree of AMPK activation in hepatocytes quantitatively.

AMPK [2] = experiment: AMPK activation in muscle cells; format: cell-based; settings: different doses, FIG. 2
synaptopodin (G1D4) = experiment: Glomerular synaptopodin (G1D4) fraction in the kidney of ZDF rats; format: in vivo, rat; settings: ZDF fatty rats, age 19 weeks; for Glomerular synaptopodin (G1D4) fraction, Positive Area (%): 2 × 25 mg/kg/d p.o., mean ± SEM
Method: Synaptopodin (G1D4) was detected with a monoclonal mouse IgG antibody (#61094, Progen). For each rat, 40 glomeruli out of two consecutive sections were selected at random. The synaptopodin (G1D4) positive area in the mesangium was measured with the Ariol SL-50 automated microscope (Applied Imaging Int. Ltd.) scanning sections at X20 (scale x/y: 1 pixel=0.36×0.36 μm^2) and setting a circular measure field of 2400 μm^2 in the centre of the glomerulus. The positive labeled area of synaptopodin (G1D4) was calculated as percentage of tissue area in the measure field. For each animal, the mean out of 40 glomeruli was calculated. Statistical comparisons were performed by unpaired Mann-Whitney-test. Data are mean±SEM.
The antibody clone G1D4 recognized differentiated podocytes (glomerular visceral epithelial cells).

[3] = tested on: human micro-vascular endothelial cells (HMEC-1); experiment: ROS production in HMEC-1; format: cell-based
Method: (§1) The efficacy of 5,6-dihydro-4-dimethylamino-2-imino-6-methyl-1,3,5-triazine was tested if once administrated (50 mg/kg/day) to drinking water of fasted Wistar rats for at least 10 days. This approach was more physiological than subcutaneous injection at elevated dose. […] The effect was observed both in rat liver (FIG. 4) and in human micro-vascular endothelial cells (HMEC; Table 2).

[4] = tested on: ROS production linked to the reverse electron flux through complex I; experiment: ROS production in rat liver after oral administration; format: in vivo; settings: fasted Wistar rats, 50 mg/kg/day in drinking water for at least 10 days, succinate alone or with glutamate/malate
Method: as §1

[5] = ob/ob and db/db mice, 8 day administration; cited from earlier work

Row | SMILES | AMPK activation in hepatocytes (AMPK [1]) | AMPK activity in muscle cells (AMPK [2]) | glomerular fraction of synaptopodin (effect of treatment in words) (synaptopodin (G1D4)) | Glomerular synaptopodin (G1D4) fraction, Positive Area (%) (synaptopodin (G1D4)) | ROS production, H2O2 ([3]; substrate GMS, additions: None) | ROS production, H2O2 ([3]; substrate GMS, additions: Rot + antimycin A (AA)) | ROS production, H2O2 ([3]; substrate GMS, additions: Rotenone (Rot)) | ROS production, H2O2 ([3]; substrate Glutamate + Malate (GM), additions: None) | ROS production, H2O2 ([3]; substrate Glutamate + Malate (GM), additions: Rot + antimycin A (AA)) | ROS production, H2O2 ([3]; substrate Glutamate + Malate (GM), additions: Rotenone (Rot)) | ROS production, H2O2 ([3]; substrate Succinate (S), additions: None) | ROS production, H2O2 ([3]; substrate Succinate (S), additions: Rot + antimycin A (AA)) | ROS production, H2O2 ([3]; substrate Succinate (S), additions: Rotenone (Rot)) | ROS production linked to the reverse electron flux through complex I [4] | reduction of blood glucose [5] [%]
1 | CC1NC(=N)N=C(N(C)C)N1 (centres unmarked) [EMD008, 5,6-dihydro-4-dimethylamino-2-imino-6-methyl-1,3,5-triazine] | significant activation of AMPK | significantly increased AMPK activity; also recorded: dose dependent and even stronger than metformin's effect | moderately increased | 45 ± 3 | 15.7 ± 1.4 pmol/min/10^7 HMEC-1 cells | 18.6 ± 1.3 pmol/min/10^7 HMEC-1 cells | 6.9 ± 1.1 pmol/min/10^7 HMEC-1 cells | 28.4 ± 2.2 pmol/min/10^7 HMEC-1 cells | 51.4 ± 8.7 pmol/min/10^7 HMEC-1 cells | 37.5 ± 1.5 pmol/min/10^7 HMEC-1 cells | 14.5 ± 1.3 pmol/min/10^7 HMEC-1 cells | 19.1 ± 3.2 pmol/min/10^7 HMEC-1 cells | 11.4 ± 2.7 pmol/min/10^7 HMEC-1 cells | time-dependently inhibited the ROS production | –
2 | NC(=O)c1ncn([C@@H]2O[C@H](CO)[C@@H](O)[C@H]2O)c1N [AICAR, 5-aminoimidazole-4-caboxamide-1beta-riboside] | – | – | – | – | – | – | – | – | – | – | – | – | – | – | 35
3 | CN(C)C(=N)NC(=N)N [Metformin, reference compound] | – | – | no effect | 38 ± 4 | – | – | – | – | – | – | – | – | – | – | –
